Test results as given in PubChem BioAssay AID248 (DTP/NCI, 2004).
Values joined by “and” are separate entries in the source; they are usually repeats but may differ in a detail not shown here. Identical values can stand only once. Inconclusive results and toxic doses are left out. Cut-off read from the data, not from the text of the source: active = T/C of 150% or more; inactive = T/C below 125%.

Test system: L1210 leukemia ip in BDF1 mice, survival T/C
Assay: NCI In Vivo Anticancer Drug Screen. Data for tumor model L1210 Leukemia (intraperitoneal) in B6D2F1 (BDF1) mice
Settings: endpoint: mean survival time, higher = longer survival
Summary of the method: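 Each compound was tested against a transplantable tumor grown in mice. The endpoint was survival, with treated animals benchmarked against vehicle controls as a simple ratio.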

Measured: T/C

O=Nc1ccc2cc(O)ccc2c1O
inactive: dose: 1.56 mg/kg/injection, schedule: Q01DX009 (ip), vehicle: Klucel (hydroxypropylcellulose) (HPC) 96 % of control | dose: 3.12 mg/kg/injection, schedule: Q01DX009 (ip), vehicle: Klucel (hydroxypropylcellulose) (HPC) 96 % of control | dose: 6.25 mg/kg/injection, schedule: Q01DX009 (ip), vehicle: Klucel (hydroxypropylcellulose) (HPC) 104 % of control | dose: 12.5 mg/kg/injection, schedule: Q01DX009 (ip), vehicle: Klucel (hydroxypropylcellulose) (HPC) 101 % of control | dose: 12.5 mg/kg/injection, schedule: Q04DX003 (ip), vehicle: Klucel (hydroxypropylcellulose) (HPC) 103 % of control | dose: 25.0 mg/kg/injection, schedule: Q04DX003 (ip), vehicle: Klucel (hydroxypropylcellulose) (HPC) 97 % of control | dose: 50.0 mg/kg/injection, schedule: Q04DX003 (ip), vehicle: Klucel (hydroxypropylcellulose) (HPC) 100 % of control

Cc1cc(Sc2ccccc2)c2c(C)ccc(C(C)C)cc1-2
inactive: dose: 100.0 mg/kg/injection, schedule: Q01DX001 (ip), vehicle: carboxymethylcellulose (CMC) 95 % of control | dose: 200.0 mg/kg/injection, schedule: Q01DX001 (ip), vehicle: carboxymethylcellulose (CMC) 97 % of control | dose: 400.0 mg/kg/injection, schedule: Q01DX001 (ip), vehicle: carboxymethylcellulose (CMC) 95 % of control

C(=N\N1CCN(/N=C/c2c[nH]c3ccccc23)CC1)/c1c[nH]c2ccccc12
inactive: dose: 100.0 mg/kg/injection, schedule: Q01DX001 (ip), vehicle: saline 94 % of control | dose: 200.0 mg/kg/injection, schedule: Q01DX001 (ip), vehicle: saline 94 % of control | dose: 400.0 mg/kg/injection, schedule: Q01DX001 (ip), vehicle: saline 94 % of control

CO/C(=C\c1ccc(OC)cc1)C(=O)O
inactive: dose: 100.0 mg/kg/injection, schedule: Q01DX009 (ip), vehicle: Klucel (hydroxypropylcellulose) (HPC) 93 % of control | dose: 100.0 mg/kg/injection, schedule: Q04DX003 (ip), vehicle: Klucel (hydroxypropylcellulose) (HPC) 100 % of control | dose: 200.0 mg/kg/injection, schedule: Q01DX009 (ip), vehicle: Klucel (hydroxypropylcellulose) (HPC) 90 % of control | dose: 200.0 mg/kg/injection, schedule: Q04DX003 (ip), vehicle: Klucel (hydroxypropylcellulose) (HPC) 101 % of control | dose: 400.0 mg/kg/injection, schedule: Q01DX009 (ip), vehicle: Klucel (hydroxypropylcellulose) (HPC) 93 % of control | dose: 400.0 mg/kg/injection, schedule: Q04DX003 (ip), vehicle: Klucel (hydroxypropylcellulose) (HPC) 100 % of control

O=C(O)/C(Cc1cn[nH]n1)=N\O
inactive: dose: 100.0 mg/kg/injection, schedule: Q01DX001 (ip), vehicle: other 95 % of control | dose: 200.0 mg/kg/injection, schedule: Q01DX001 (ip), vehicle: other 101 % of control | dose: 400.0 mg/kg/injection, schedule: Q01DX001 (ip), vehicle: other 101 % of control

O=P(N(CCCl)CCCl)(N1CCCCC1)N1CCCCC1
inactive: dose: 50.0 mg/kg/injection, schedule: Q01DX Z (ip), vehicle: saline 86 % of control | dose: 100.0 mg/kg/injection, schedule: Q01DX Z (ip), vehicle: saline 88 % of control | dose: 200.0 mg/kg/injection, schedule: Q01DX Z (ip), vehicle: saline 90 % of control

CCC1/C=C/C=C/CC(C)C(O)C(C)(O)C(=O)C(C)C(O)C(C)C(=O)C(C)C(O)C(C)/C=C/C(=O)OC2C(C)C(CC1)OC1(OC(CC(C)O)C(C)CC1=O)C2C (stereo not drawn) (tested in a mixture with another compound)
inactive: dose: 0.08 mg/kg/injection, schedule: Q01DX009 (ip), vehicle: saline 102 % of control | dose: 0.16 mg/kg/injection, schedule: Q01DX009 (ip), vehicle: saline 103 % of control | dose: 0.16 mg/kg/injection, schedule: Q04DX003 (ip), vehicle: saline 117 % of control | dose: 0.31 mg/kg/injection, schedule: Q01DX009 (ip), vehicle: saline 102 % of control | dose: 0.32 mg/kg/injection, schedule: Q01DX001 (ip), vehicle: saline 118 % of control | dose: 0.32 mg/kg/injection, schedule: Q01DX009 (ip), vehicle: saline 113 % of control | dose: 0.32 mg/kg/injection, schedule: Q04DX003 (ip), vehicle: saline 117 % of control | dose: 0.44 mg/kg/injection, schedule: Q01DX Z (ip), vehicle: other 114 % of control | dose: 0.44 mg/kg/injection, schedule: Q01DX Z (ip), vehicle: saline 100 % of control | dose: 0.47 mg/kg/injection, schedule: Q01DX009 (ip), vehicle: saline with Tween-80 120 % of control | dose: 0.47 mg/kg/injection, schedule: Q01DX009 (ip), vehicle: saline 101 % of control | dose: 0.63 mg/kg/injection, schedule: Q01DX009 (ip), vehicle: saline 104 % of control | dose: 0.66 mg/kg/injection, schedule: Q01DX Z (ip), vehicle: other 122 % of control | dose: 0.66 mg/kg/injection, schedule: Q01DX Z (ip), vehicle: saline 96 % of control | dose: 0.7 mg/kg/injection, schedule: Q01DX009 (ip), vehicle: saline 102 % of control | dose: 0.8 mg/kg/injection, schedule: Q01DX Z (ip), vehicle: methylcellulose (MC) 110 % of control | dose: 1.0 mg/kg/injection, schedule: Q01DX Z (ip), vehicle: saline 109 % of control and 116 % of control | dose: 1.2 mg/kg/injection, schedule: Q01DX Z (ip), vehicle: methylcellulose (MC) 106 % of control | dose: 1.25 mg/kg/injection, schedule: Q01DX009 (ip), vehicle: saline 102 % of control | dose: 1.5 mg/kg/injection, schedule: Q01DX Z (ip), vehicle: other 115 % of control | dose: 1.5 mg/kg/injection, schedule: Q01DX Z (ip), vehicle: saline 102 % of control and 118 % of control | dose: 1.8 mg/kg/injection, schedule: Q01DX Z (ip), vehicle: methylcellulose (MC) 106 % of control | dose: 2.5 mg/kg/injection, schedule: Q01DX009 (ip), vehicle: saline 96 % of control | dose: 2.6 mg/kg/injection, schedule: Q01DX001 (ip), vehicle: saline 112 % of control | dose: 2.7 mg/kg/injection, schedule: Q01DX Z (ip), vehicle: methylcellulose (MC) 107 % of control | dose: 4.0 mg/kg/injection, schedule: Q01DX001 (ip), vehicle: saline 117 % of control | dose: 4.0 mg/kg/injection, schedule: Q01DX Z (ip), vehicle: methylcellulose (MC) 102 % of control | dose: 5.0 mg/kg/injection, schedule: Q01DX009 (ip), vehicle: saline 110 % of control | dose: 6.0 mg/kg/injection, schedule: Q01DX001 (ip), vehicle: saline 123 % of control | dose: 8.0 mg/kg/injection, schedule: Q01DX Z (ip), vehicle: methylcellulose (MC) 92 % of control | dose: 10.0 mg/kg/injection, schedule: Q01DX009 (ip), vehicle: saline 124 % of control

CCOC(=O)/C(C#N)=C\c1ccc(N(CC)CC)cc1
inactive: dose: 100.0 mg/kg/injection, schedule: Q01DX001 (ip), vehicle: Klucel (hydroxypropylcellulose) (HPC) 91 % of control | dose: 200.0 mg/kg/injection, schedule: Q01DX001 (ip), vehicle: Klucel (hydroxypropylcellulose) (HPC) 86 % of control | dose: 400.0 mg/kg/injection, schedule: Q01DX001 (ip), vehicle: Klucel (hydroxypropylcellulose) (HPC) 89 % of control

O=[N+]([O-])c1cc(Cl)c(O)c(Cl)c1Cl
inactive: dose: 25.0 mg/kg/injection, schedule: Q01DX009 (ip), vehicle: acetone 97 % of control | dose: 50.0 mg/kg/injection, schedule: Q01DX009 (ip), vehicle: acetone 97 % of control | dose: 50.0 mg/kg/injection, schedule: Q04DX003 (ip), vehicle: acetone 95 % of control | dose: 100.0 mg/kg/injection, schedule: Q01DX001 (ip), vehicle: acetone 102 % of control | dose: 100.0 mg/kg/injection, schedule: Q01DX009 (ip), vehicle: acetone 88 % of control | dose: 100.0 mg/kg/injection, schedule: Q04DX003 (ip), vehicle: acetone 92 % of control | dose: 150.0 mg/kg/injection, schedule: Q01DX009 (ip), vehicle: saline 90 % of control | dose: 200.0 mg/kg/injection, schedule: Q01DX001 (ip), vehicle: acetone 100 % of control | dose: 225.0 mg/kg/injection, schedule: Q01DX009 (ip), vehicle: saline 87 % of control
